By Kd is commonly meant the free concentration of one partner at which half of the binding sites on the other are occupied at equilibrium, for simple one-to-one binding.

“And” between values parts separate entries of the source, which are not always exact repeats. Identical values can stand only once.

The source of these data is article PMC6505672, “Conformational change of Sos-derived proline-rich peptide upon binding Grb2 N-terminal SH3 domain probed by NMR” (Scientific Reports, 2013).

Details of series [1]: method as in earlier work. The conditions noted are these: free state, cited from earlier work.
Series [2] concerns the target T1, Grb2 N-terminal SH3 (nSH3) domain (Homo sapiens, UniProt P62993).
T1 construct: The plasmid to express the Grb2 nSH3 domain (residues 1–57) was constructed by using a pGEX-6P expression vector; GST (N, cleaved yes); made in house; host or cells: E. coli BL21 (DE3)
The experiment in a line: 13Cα CPMG relaxation dispersion of VPP peptide with Grb2 nSH3. In kind it is binding. The method, then:
Non-labelled VPP (10 mM) peptide mixed with 0.25 mM Grb2 nSH3 dissolved in ^2H2O solvent was subjected to ^13Cα relaxation dispersion experiments.
The global exchange parameters of the exchange rate, kex; the fractional population of the minor state, Pb were calculated from the dispersion curves of Val5 and Arg8. Then, the chemical shift difference between two states, Δω; the target function of fitting error, χ^2; and the nonexchangeable contribution of R2,eff, R2,0 for each residue were calculated using the global exchange parameters based on a two-state exchange model. […] The exchange rate kex is defined as kex = kon[P] + koff, where [P] is the concentration of the protein. In this experimental condition, [P] is assumed to be zero because the concentration of the ligand is much higher than that of the protein. Thus, kex = koff. The affinity of the ligand to the protein, i.e., Kd, is defined as Kd = koff/kon. If kon is diffusion-controlled, kon ~ 10^8 M^−1s^−1. […] However, as reported by Lundström et al. Cα and Cβ atoms of valine are simultaneously incorporated to the final products from [^13C-2]-glucose as a sole carbon source by using an E.coli expression system. Thus, isolated ^13Cα-selective labelled valine residues cannot be prepared for this experimental purpose.
Two-dimensional ^1H-^13C correlated spectra were collected as series of data sets with CPMG frequencies (νCPMG) of 30, 60, 120, 180, 300, 450, and 600 Hz. The constant-time relaxation delay Trelax was set to 66.7 ms. Spectra were recorded as 62 × 600 complex points with a 2.6-s repetition delay and 32 scans for each increment. The total experimental time was 24 h for both 600 and 500 MHz spectrometers.
Peak intensities of the ^13Cα relaxation dispersion data were quantified using the Sparky program. The transverse relaxation constant, R2,eff, for each νCPMG frequency was calculated as R2,eff = −ln(I(νCPMG)/I0)/Trelax, where I(νCPMG) is the peak intensity obtained for a given value of νCPMG and I0 is the peak intensity obtained when the CPMG block is omitted. The CPMG dispersion curves were fitted numerically as a two-state exchange model using an in-house program described elsewhere. The fitting calculation extracted the following terms as the global parameters: the exchange rate, kex; the fractional population of the minor state, Pb; and the residue specific parameters, including the magnitude of the chemical shift difference between two states, Δω; the target function of fitting error, χ^2; and the nonexchangeable contribution of R2,eff, R2,0.

Series [3] has as its target T1, Grb2 N-terminal SH3 (nSH3) domain. In words: Minor (cis Xaa-Pro) peaks in 1H-13Cα HSQC, Grb2 nSH3-bound state. The conditions noted are these: PBS in 2H2O, 25°C. It counts as physicochemical. The method, then: The relative intensities of the minor peaks with respect to the major peaks for these residues were 10% for Val1, 3% for Pro2, 14% for Pro4, 10% for Val5, and 6% for Pro6.
The buffer system for NMR experiments was PBS in ^2H2O. […] Data were processed using the NMRPipe/NMRDraw software package. Peak picking and spectral analysis were performed using the Sparky program. Conformational analyses based on chemical shifts were conducted using the Random Coil Index (RCI) program[19] on the web server (http://randomcoilindex.com/).

Series [4] in a line: 13Cα CPMG relaxation dispersion of free VPP peptide (Grb2 nSH3 absent). It counts as physicochemical. As to conditions: 25°C. The method, then: The global exchange parameters of the exchange rate, kex; the fractional population of the minor state, Pb were calculated from the dispersion curves of Val5 and Arg8. Then, the chemical shift difference between two states, Δω; the target function of fitting error, χ^2; and the nonexchangeable contribution of R2,eff, R2,0 for each residue were calculated using the global exchange parameters based on a two-state exchange model. […] The kex values were slightly larger than the Δω values, indicating a fast or intermediate exchange process on the chemical shift time scale. The exchange rate kex is defined as kex = kon[P] + koff, where [P] is the concentration of the protein. […]
Two-dimensional ^1H-^13C correlated spectra were collected as series of data sets with CPMG frequencies (νCPMG) of 30, 60, 120, 180, 300, 450, and 600 Hz. […] Spectra were recorded as 62 × 600 complex points with a 2.6-s repetition delay and 32 scans for each increment. […]
Peak intensities of the ^13Cα relaxation dispersion data were quantified using the Sparky program. The transverse relaxation constant, R2,eff, for each νCPMG frequency was calculated as R2,eff = −ln(I(νCPMG)/I0)/Trelax, where I(νCPMG) is the peak intensity obtained for a given value of νCPMG and I0 is the peak intensity obtained when the CPMG block is omitted. […]

The subject of a further series is Grb2 nSH3. As to conditions: single alanine substitution, ITC; cited from earlier work.
Series [5] deals with Sos-derived VPP peptide (Homo sapiens) (UniProt Q07889). As to conditions: cited from earlier work.

T1 sequence (P62993 1-57): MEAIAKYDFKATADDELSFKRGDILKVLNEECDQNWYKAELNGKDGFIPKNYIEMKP
Sequence of Grb2 nSH3 (from UniProt P62993) (P62993 1-58): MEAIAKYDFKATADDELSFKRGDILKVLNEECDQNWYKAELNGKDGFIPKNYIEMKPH

For `CC(C)C[C@H](NC(=O)[C@@H]1CCCN1C(=O)CN)C(=O)NCC(=O)N[C@@H](CO)C(=O)N[C@H](C(=O)N1CCC[C@H]1C(=O)N1CCC[C@H]1C(=O)N1CCC[C@H]1C(=O)N[C@H](C(=O)N1CCC[C@H]1C(=O)N1CCC[C@H]1C(=O)N[C@@H](CCCNC(=N)N)C(=O)N[C@@H](CCCNC(=N)N)C(=O)N[C@@H](CCCNC(=N)N)C(=O)O)C(C)C)C(C)C` [VPP peptide], the PPII helix structure in series [1] (NMR and circular dichroism) is ~ 60%. For the same molecule, the “minor (cis) conformation” value in series [1] is 9%. Also, the “population of the minor state (Pb), in percent” value in series [2] (10 mM peptide, 0.25 mM Grb2 nSH3, 25°C, bound population expected from sample 2.5%) was ~ 2.6%. Also, the “exchange rate, kex” value in series [2] (global fit of Val5 and Arg8, two-state exchange model, 10 mM VPP peptide, 0.25 mM Grb2 nSH3, PBS in 2H2O, 25°C, 11.7 and 14.1 T, kex = koff assumed) worked out at 1037.87 s⁻¹. Also, the “fractional population of the minor state, Pb” value in series [2] (global fit of Val5 and Arg8, two-state model, 10 mM peptide, 0.25 mM Grb2 nSH3, 25°C, as fraction) was 0.026. The significant relaxation dispersion result in series [2] (presence of Grb2 nSH3, 11.7 and 14.1 T, 25°C) is “Significant dispersion was only observed for Val5 and Arg8 and not for the other residues”. In addition, the Δω in series [2] (range over all residues, 13Cα, relaxation dispersion) was 0–1.5 ppm; in series [2] (residue P3, 13Cα shift difference between two states from relaxation dispersion fit, 25°C), 0.09 ± 0.18 ppm; in series [2] (residue R8, 13Cα shift difference between two states from relaxation dispersion fit, 25°C), 1.53 ppm and 1.53 ± 0.42 ppm; in series [2] (residue R9, 13Cα shift difference between two states from relaxation dispersion fit, 25°C) it was 0.23 ± 0.20 ppm; in series [2] (residue R10, 13Cα shift difference between two states from relaxation dispersion fit, 25°C), 0.13 ± 0.17 ppm; in series [2] (residue V5, 13Cα shift difference between two states from relaxation dispersion fit, 25°C), 1.47 ppm and 1.47 ± 0.52 ppm. Besides, the Δω in series [2] (residues P4/P7 (overlapped), 13Cα shift difference between two states from relaxation dispersion fit, 25°C) is on record as 0.00 ± 0.16 ppm. Further, the “minor (cis) peaks in bound state” value in series [3] was “lack of minor peaks in the bound state”. Also, the relaxation dispersion curves result in series [4] is on record as “the dispersion curves were flat”. Besides, the “residues critical for interaction with Grb2 nSH3” value with Grb2 nSH3 is “Pro3, Val5, Pro6, and Arg8 of the VPP peptide are critical for interaction with Grb2 nSH3”.

Consider Grb2 nSH3 (from UniProt P62993), for which the Kd in series [5] was 3.5 µM.
